Measurements: US7807367B2, “Enzymatic fluorometric assay for cAMP and adenylate cyclase and kits therefor” (Fuso Pharmaceutical Industries, Ltd., priority 1999, dated 2010)

System: ventricular myocytes
Assay: Micro cAMP measurement in tissue cultures with enzymatic fluorometric assay
Type: cell-based, rat
Details: isolated ventricular myocytes of 1 day-old rats, 2 μM IBMX, isoproterenol 1 μM final, 5 minutes, one-tenth of eluent, cAMP standard curve
Protocol: Isolated ventricular myocytes were obtained from hearts of 1 day-old rats, grown in primary cultures. There were approximately 5 million viable myocardial cells per heart. After plating at a density of approximately 1 million cells per 100 mm, dish cells were grown in minimum essential medium with Hanks balanced salt solution containing 5% bovine calf serum cells. Simpson et al., Cir. Res., 51, 787 (1982). On day 4, the medium was changed. The cultures contained >90% myocardial cells and cell numbers were constant over time. Simpson et al., Cir. Res., 51, 787 (1982); Rocha-Singh et al., J. Clin. Invest., 88, 204 (1991); and Rocha-Singh et al., J. Clin. Invest., 88, 706 (1991)
Six plates of myocytes were randomized into two groups (n=3 plates/group). […]
A volume of 125 μL of the Detecting Reaction Mixture prepared from (E) (100 mM Tris-HCl, pH 8.0; 3.2 mM EDTA; 0.6 mM NADP^+; 1 U/mL Phosphoglucose isomerase; 0.5 U/mL Glucose-6-phosphate dehydrogenase) was added to each assay tube from Cycling Reactions. After 20 minutes at room temperature, the final concentration of NADPH was measured using a fluorometer (Optical Technology Devises, Inc., NY). The fluorometer was set such that a reading of 10 fluorometric units was equivalent to 1 nmol of NADPH in 900 μL of buffer (50 mM Tris-HCl, pH 8.0). […]

## CC(C)NCC(O)c1ccc(O)c(O)c1 (stereo not shown) [isoproterenol]
  actual value of cAMP: 680 pmol/100 mm plate
